# Key:
# [1] = molecular target: Sigma non-opioid intracellular receptor 1 (Cavia porcellus) (UniProt Q60492); assay: Ability to displace [3H](+)-pentazocine from Sigma opioid receptor type 1 of guinea pig brain
# [2] = molecular target: Sigma-2 receptor (TMEM97) (Rattus norvegicus); assay: Ability to displace [3H]ditolylguanidine in the presence of 100 nM (+)-pentazocine from Sigma opioid receptor type 2 of rat liver
# Sigma non-opioid intracellular receptor 1 (Cavia porcellus), sequence (Q60492 whole entry, looked up): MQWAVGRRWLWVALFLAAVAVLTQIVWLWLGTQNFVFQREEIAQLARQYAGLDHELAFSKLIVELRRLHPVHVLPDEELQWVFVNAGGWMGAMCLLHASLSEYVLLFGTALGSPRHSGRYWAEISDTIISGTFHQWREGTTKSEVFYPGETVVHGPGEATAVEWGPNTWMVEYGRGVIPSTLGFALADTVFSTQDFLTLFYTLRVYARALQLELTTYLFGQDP
SMILES,Ki [1] [nM],Ki [2] [nM]
"CCOC(=O)C1Cc2ccccc2C2(CCN(Cc3ccccc3)CC2)O1 (configuration not stated) [ethyl 1'-benzylspiro[3,4-dihydro-1H-isochromene-1,4'-(hexahydropyridine)]-3-carboxylate]",9.33,10500
"O=CCC1Cc2ccccc2C2(CCN(Cc3ccccc3)CC2)O1 (configuration not stated) [2-[1'-benzylspiro[3,4-dihydro-1H-isochromene-1,4'-(hexahydropyridine)]-3-yl]acetaldehyde]",55.1,9910
"N#CCC1Cc2ccccc2C2(CCN(Cc3ccccc3)CC2)O1 (configuration not stated) [1'-benzylspiro[3,4-dihydro-1H-isochromene-1,4'-(hexahydropyridine)]-3-ylmethyl cyanide]",15.9,4700
"CNCCC1Cc2ccccc2C2(CCN(Cc3ccccc3)CC2)O1 (configuration not stated) [1N-methyl-2-[1'-benzylspiro[3,4-dihydro-1H-isochromene-1,4'-(hexahydropyridine)]-3-yl]-1-ethanamine]",148,4360
"CCOC(=O)CC1OC2(CCN(Cc3ccccc3)CC2)c2ccccc21 (configuration not stated) [ethyl 2-[1'-benzylspiro[1,3-dihydroisobenzofuran-1,4'-(hexahydropyridine)]-3-yl]acetate]",15.1,6770
"OCCC1Cc2ccccc2C2(CCN(Cc3ccccc3)CC2)O1 (configuration not stated) [2-[1'-benzylspiro[3,4-dihydro-1H-isochromene-1,4'-(hexahydropyridine)]-3-yl]-1-ethanol]",12.7,8460
"CNC(=O)CC1Cc2ccccc2C2(CCN(Cc3ccccc3)CC2)O1 (configuration not stated) [1N-methyl-2-[1'-benzylspiro[3,4-dihydro-1H-isochromene-1,4'-(hexahydropyridine)]-3-yl]acetamide]",170,
"CCOC(=O)CC1Cc2ccccc2C2(CCN(Cc3ccccc3)CC2)O1 (configuration not stated) [ethyl 2-[1'-benzylspiro[3,4-dihydro-1H-isochromene-1,4'-(hexahydropyridine)]-3-yl]acetate]",183,22700

# These reach a lower Ki [1]. Values come first.
Ki [1] [nM],Ki [2] [nM],SMILES
2.16,1660,"N#CCC1OC2(CCN(Cc3ccccc3)CC2)c2ccccc21 (configuration not stated) [1'-benzylspiro[1,3-dihydroisobenzofuran-1,4'-(hexahydropyridine)]-3-ylmethyl cyanide]"
2.18,,"N#CC1OC2(CCN(Cc3ccccc3)CC2)c2ccccc21 (configuration not stated) [1'-benzylspiro[1,3-dihydroisobenzofuran-1,4'-(hexahydropyridine)]-3-carbonitrile]"
7.16,2090,"OCC1Cc2ccccc2C2(CCN(Cc3ccccc3)CC2)O1 (configuration not stated) [1'-benzylspiro[3,4-dihydro-1H-isochromene-1,4'-(hexahydropyridine)]-3-ylmethanol]"
8.95,7130,"CCOC(=O)C1OC2(CCN(Cc3ccccc3)CC2)c2ccccc21 (configuration not stated) [ethyl 1'-benzylspiro[1,3-dihydroisobenzofuran-1,4'-(hexahydropyridine)]-3-carboxylate]"
